# Measured values taken from patent US20110238319A1, “METHOD OF DIAGNOSING A RESPIRATORY DISEASE” (priority 2008, published 2011).
# Key:
# [1] = tested on: guinea pigs
# Experimental: Female Dunkin-Hartley guinea pigs (GP) were used (specific pathogen-free, 180-450 g, Charles River Laboratories, Saint-Constant, Canada) in accordance with standards established by the University of Alberta Health Sciences Animal Policy and Welfare Committee and Guidelines of the Canadian Council on Animal Care. All guinea pigs were allowed to adapt to the new environment for at least one week before physiologic studies. […] Airway function and inflammation were assessed four days after OVA challenge or 21 days after sensitization alone.
# Guinea Pigs were anesthetized with urethane (1.5 g/kg i.p.), tracheostomized, and ventilated after paralysis with succinylcholine chloride (Sigma-Aldrich) (10 μg/kg/min, i.v.). Pulmonary inflation pressure (Ppi) was measured using (Powerlab, Adlnstruments, Colorado Springs, USA) as previously described^17. […] The resulting bronchoconstriction was recorded as increases in Ppi.
# The results are expressed as mean and standard error of the mean (SEM) and standard deviation (SD) respectively. A P-value of 0.05 was considered significant.
# [2] = Urine metabolite concentrations by 1H-NMR (Chenomx, PLS-DA); format: in vivo, guinea pig; conditions: for urine Fumarate concentration / urine Glycolate concentration / urine Trimethylamine concentration: mean (STD) per title
# Experimental: Regarding animal urine data: under anaesthesia, but before performing airway inflammatory measurements, urine samples (1.0-2.0 cc) were collected by trans-abdominal cystocentesis. Regarding human urine data: midstream urine samples were collected in standard 50 ml specimen containers and promptly placed in a freezer at the outpatient clinic (−20° C.).
# Within 3 hours each the urine sample was moved to the −80° C. freezer at NANUC (National High Field NMR Centre), University of Alberta. To determine the NMR spectra, the samples were thawed in a biosafety fume hood and a […] aliquot was removed and placed in a 1.5 ml Eppendorff tube followed by the addition of […] of a reference buffer solution (4.9 mM DSS (disodium-2, 2-dimethyl 2-silapentane-5-sulphonate) and 100 mM imidazole in D2O, Sigma-Aldrich). Each sample was brought to a pH of 7.0 +/-0.1 using HCl and NaOH. An uncentrifuged aliquot of 600 μl was taken and transferred to a standard 5 mm glass NMR tube (Wilmad, N.J.). ^1H-NMR spectra were acquired on a 600 MHz Inova spectrometer (Varian Inc, Palo Alto, Calif.) equipped with a 5 mm triple-resonance (HCN) probe with z-axis gradient coil. One-dimensional ^1H-NMR spectra were collected at 25° C. with a tnnoesy pulse sequence (one-dimensional, three pulse NOESY, with a transmitter pre-saturation delay of 900 ms for water suppression during the pre-acquisition delay and 100 ms mixing time) and a spectral width of 7200 Hz. The time-domain data points were 64k complex points, acquisition time was 4s, 90° pulse was 6.8 μs, repetition time was 5 s, with four steady state scans, and 32 acquired scans per FID (Free Induction Decay). The data were apodized with an exponential window function corresponding to a line broadening of 0.5 Hz, zero-filled to 128 k complex points, and Fourier transformed^22.
# Quantification of 50-70 easily identifiable metabolites involved in various relevant metabolic pathways was performed using Chenomx NMR Suite Professional software package Version 3.1 (Chenomx Inc., Edmonton, AB)^23. The software contains a database of known metabolites with their referenced spectral resonant frequencies or signatures. The software allows matching of these known resonant frequencies with the observed resonant frequencies of the collected spectra, enabling the qualitative and quantitative analysis of metabolites in urine NMR spectra (FIG. 1A). The methyl groups from DSS produce a resonant singlet, which served as internal standard for spectral chemical shifts (set to 0 ppm) and for quantification. The internal DSS signal was also utilized as the concentration reference (0.49 mM). To correct for dilution, metabolite concentrations were referenced against urinary creatinine^24. This method is capable of providing metabolite concentration accuracies in excess of 90%^23, 25.
# To separate groups of animals or patients based on urine metabolite concentrations, the values of the 50-70 metabolite concentrations for each animal/child were log transformed and imported to SIMCA software (SIMCA-P 11, Umetrics, USA). […] To appreciate the impact of a lower concentration metabolite in the model, equal to the change in an abundant metabolite, the methods must detect the relative change in concentration. Thus, metabolite concentrations were mean-centered followed by unit variance scaling (or z-scoring). Thereafter, partial least squares discriminant analysis (PLS-DA) was performed (SIMCA-P 11). PLS-DA determines the relationship between the response vector Y (i.e. subject group) and the matrix X (concentration of each metabolite) by simultaneous projections of both Y and X spaces to a plane. Then seven fold internal crossvalidation was performed by dividing the data into seven parts (by default) and each 1/7th in turn was removed.
# [3] = tested on: guinea pigs; assay: Lung lavage total and differential cell counts; format: in vivo, guinea pig
# Experimental: (§1) Animals were sacrificed with an overdose of urethane (3 gm/kg i.v.). Cytosmear for total and differential cell counts (Diff-Quik®, Baxter Healthcare Corp) were performed on lung lavage ^17. The lungs were removed, inflated and fixed in 3.7% formaldehyde for 24 hours. Airway sections were stained with 2% chromotrope 2R to determine the average number of eosinophils per 10 high power field (#/hpf) as previously described^20.
# (§2) A P-value of 0.05 was considered significant.
# [4] = tested on: guinea pigs; assay: Eosinophil count in cartilaginous airways (histology); format: in vivo, guinea pig; conditions: challengeddex vs challenged
# Experimental: as §1, §2
smiles,measurement,setting,value
NCCc1c[nH]cn1 [histamine],bronchoconstriction measured by increasing Ppi,[1]; histamine 1-20 μg/kg i.v.,dose-dependent bronchoconstriction
"C[C@@H]1C[C@H]2[C@@H]3CCC4=CC(=O)C=C[C@]4(C)[C@@]3(F)[C@@H](O)C[C@]2(C)[C@@]1(O)C(=O)CO [Dex, dexamethasone]",urine 1-Methyl-Histamine concentration,[2]; Challenged/Dex group (n = 12),0.044(0.002-0.055) mmol/mmol creatinine
same,urine 2-OH-Isobutyrate concentration,[2]; Challenged/Dex group (n = 12),0.043(0.031-0.061) mmol/mmol creatinine
same,urine 2-Oxoglutarate concentration,[2]; Challenged/Dex group (n = 12),0.006(0.005-0.012) mmol/mmol creatinine
same,urine 3-Methyl-Adipate concentration,[2]; Challenged/Dex group (n = 12),0.011(0.009-0.017) mmol/mmol creatinine
same,urine 3-OH-3-Methyl-Glutarate concentration,[2]; Challenged/Dex group (n = 12),0.010(0.006-0.014) mmol/mmol creatinine
same,urine 3-OH-Butyrate concentration,[2]; Challenged/Dex group (n = 12),0.018(0.013-0.029) mmol/mmol creatinine
same,urine 4-Aminohippurate concentration,[2]; Challenged/Dex group (n = 12),0.010(0.005-0.010) mmol/mmol creatinine
same,urine 4-OH-Phenylacetate concentration,[2]; Challenged/Dex group (n = 12),0.122(0.068-0.196) mmol/mmol creatinine
same,urine 4-Pyridoxate concentration,[2]; Challenged/Dex group (n = 12),0.009(0.005-0.010) mmol/mmol creatinine
same,urine Acetate concentration,[2]; Challenged/Dex group (n = 12),0.118(0.081-0.203) mmol/mmol creatinine
same,urine Acetoacetate concentration,[2]; Challenged/Dex group (n = 12),0.007(0.005-0.010) mmol/mmol creatinine
same,urine Acetone concentration,[2]; Challenged/Dex group (n = 12),0.005(0.003-0.009) mmol/mmol creatinine
same,urine Adenosine concentration,[2]; Challenged/Dex group (n = 12),0(0-0.001) mmol/mmol creatinine
same,urine Carnitine concentration,[2]; Challenged/Dex group (n = 12),0.010(0.010-0.015) mmol/mmol creatinine
same,urine Creatine concentration,[2]; Challenged/Dex group (n = 12),0.026(0.016-0.033) mmol/mmol creatinine
same,urine Dimethylamine concentration,[2]; Challenged/Dex group (n = 12),0.122(0.103-0.146) mmol/mmol creatinine
same,urine Glucose concentration,[2]; Challenged/Dex group (n = 12),0.155(0.100-0.334) mmol/mmol creatinine
same,urine Isobutyrate concentration,[2]; Challenged/Dex group (n = 12),0(0-0) mmol/mmol creatinine
same,urine Kynurenate concentration,[2]; Challenged/Dex group (n = 12),0.006(0.004-0.008) mmol/mmol creatinine
same,urine Malonate concentration,[2]; Challenged/Dex group (n = 12),0.014(0.010-0.018) mmol/mmol creatinine
same,urine Methylamine concentration,[2]; Challenged/Dex group (n = 12),0.033(0.026-0.069) mmol/mmol creatinine
same,urine Myolnositol concentration,[2]; Challenged/Dex group (n = 12),0.035(0.020-0.080) mmol/mmol creatinine
same,urine Oxalacetate concentration,[2]; Challenged/Dex group (n = 12),0.249(0.197-0.323) mmol/mmol creatinine
same,urine Phenylacetylglycine concentration,[2]; Challenged/Dex group (n = 12),0.140(0.095-0.213) mmol/mmol creatinine
same,urine Phenylalanine concentration,[2]; Challenged/Dex group (n = 12),0.022(0.016-0.042) mmol/mmol creatinine
same,urine Sarcosine concentration,[2]; Challenged/Dex group (n = 12),0.010(0.007-0.016) mmol/mmol creatinine
same,urine Succinate concentration,[2]; Challenged/Dex group (n = 12),0.006(0.005-0.008) mmol/mmol creatinine
same,urine Trigonelline concentration,[2]; Challenged/Dex group (n = 12),0.069(0.063-0.091) mmol/mmol creatinine
same,urine Trimethyl-N-Oxide concentration,[2]; Challenged/Dex group (n = 12),0.045(0.027-0.062) mmol/mmol creatinine
same,urine Tyrosine concentration,[2]; Challenged/Dex group (n = 12),0.024(0.016-0.032) mmol/mmol creatinine
same,urine Fumarate concentration,[2]; Challenged/Dex group (n = 12),0(0-0) mmol/mmol creatinine
same,urine Glycolate concentration,[2]; Challenged/Dex group (n = 12),0(0-0) mmol/mmol creatinine
same,urine Trimethylamine concentration,[2]; Challenged/Dex group (n = 12),0(0-0) mmol/mmol creatinine
same,urine 1-Methyl-Histamine concentration,[2]; Control/Dex group (n = 4),0.015(0.008-0.023) mmol/mmol creatinine
same,urine 2-OH-Isobutyrate concentration,[2]; Control/Dex group (n = 4),0.043(0.038-0.045) mmol/mmol creatinine
same,urine 2-Oxoglutarate concentration,[2]; Control/Dex group (n = 4),0.004(0.003-0.005) mmol/mmol creatinine
same,urine 3-Methyl-Adipate concentration,[2]; Control/Dex group (n = 4),0.015(0.008-0.018) mmol/mmol creatinine
same,urine 3-OH-3-Methyl-Glutarate concentration,[2]; Control/Dex group (n = 4),0.004(0.003-0.005) mmol/mmol creatinine
same,urine 3-OH-Butyrate concentration,[2]; Control/Dex group (n = 4),0.041(0.029-0.048) mmol/mmol creatinine
same,urine 4-Aminohippurate concentration,[2]; Control/Dex group (n = 4),0.090(0.040-0.115) mmol/mmol creatinine
same,urine 4-OH-Phenylacetate concentration,[2]; Control/Dex group (n = 4),0.101(0.095-0.130) mmol/mmol creatinine
same,urine 4-Pyridoxate concentration,[2]; Control/Dex group (n = 4),0.004(0.003-0.005) mmol/mmol creatinine
same,urine Acetate concentration,[2]; Control/Dex group (n = 4),0.137(0.098-0.180) mmol/mmol creatinine
same,urine Acetoacetate concentration,[2]; Control/Dex group (n = 4),0.011(0.009-0.012) mmol/mmol creatinine
same,urine Acetone concentration,[2]; Control/Dex group (n = 4),0.004(0.003-0.005) mmol/mmol creatinine
same,urine Adenosine concentration,[2]; Control/Dex group (n = 4),0.002(0-0.003) mmol/mmol creatinine
same,urine Carnitine concentration,[2]; Control/Dex group (n = 4),0.140(0.120-0.175) mmol/mmol creatinine
same,urine Creatine concentration,[2]; Control/Dex group (n = 4),0.039(0.035-0.045) mmol/mmol creatinine
same,urine Dimethylamine concentration,[2]; Control/Dex group (n = 4),0.096(0.087-0.110) mmol/mmol creatinine
same,urine Isobutyrate concentration,[2]; Control/Dex group (n = 4),0(0-0.50) mmol/mmol creatinine
same,urine Kynurenate concentration,[2]; Control/Dex group (n = 4),0.005(0.004-0.010) mmol/mmol creatinine
same,urine Malonate concentration,[2]; Control/Dex group (n = 4),0.016(0.011-0.020) mmol/mmol creatinine
same,urine Methylamine concentration,[2]; Control/Dex group (n = 4),0.009(0.009-0.014) mmol/mmol creatinine
same,urine Myolnositol concentration,[2]; Control/Dex group (n = 4),0.410(0.380-0.570) mmol/mmol creatinine
same,urine Oxalacetate concentration,[2]; Control/Dex group (n = 4),0.237(0.228-0.247) mmol/mmol creatinine
same,urine Phenylacetylglycine concentration,[2]; Control/Dex group (n = 4),0.024(0.022-0.026) mmol/mmol creatinine
same,urine Phenylalanine concentration,[2]; Control/Dex group (n = 4),0.011(0.009-0.013) mmol/mmol creatinine
same,urine Sarcosine concentration,[2]; Control/Dex group (n = 4),0.004(0.003-0.005) mmol/mmol creatinine
same,urine Succinate concentration,[2]; Control/Dex group (n = 4),0.013(0.011-0.014) mmol/mmol creatinine
same,urine Succinylacetone concentration,[2]; Control/Dex group (n = 4),0.004(0.003-0.005) mmol/mmol creatinine
same,urine Trigonelline concentration,[2]; Control/Dex group (n = 4),0.053(0.044-0.059) mmol/mmol creatinine
same,urine Trimethyl-N-Oxide concentration,[2]; Control/Dex group (n = 4),0.089(0.076-0.107) mmol/mmol creatinine
same,urine Tyrosine concentration,[2]; Control/Dex group (n = 4),0.027(0.016-0.042) mmol/mmol creatinine
same,urine Fumarate concentration,[2]; Control/Dex group (n = 4),0(0-0) mmol/mmol creatinine
same,urine Glycolate concentration,[2]; Control/Dex group (n = 4),0(0-0) mmol/mmol creatinine
same,urine Trimethylamine concentration,[2]; Control/Dex group (n = 4),0(0-0) mmol/mmol creatinine
same,urine phenylacetylglycine level,[2]; challenged animals after dexamethasone treatment,returned to control levels
same,urine sarcosine level,[2]; challenged guinea pig after steroid treatment,decreased
same,urine metabolite profile by PLS-DA,"[2]; challenged vs challengeddex, control vs controldex",altered urine metabolite profile
same,urine myo-inositol level,[2]; challengeddex among guinea pig groups,highest
same,urinary excretion of 2-hydroxyisobutyrate,[2]; challengeddex vs challenged,levels rose
same,urinary excretion of glucose,[2]; challengeddex vs challenged,levels rose
same,urine phenylacetylglycine level,[2]; dexamethasone-treated controls vs control,significantly lower levels
same,bronchoconstriction response to histamine (Ppi),"[1]; challengeddex compared to challenged alone, dexamethasone 6.5 μg/kg i.p. 1 hour after challenge then daily for two days, p<0.05",diminished response
same,total cells in lung lavage,[3]; challengeddex vs challenged,remained higher similar to challenge
same,lymphocytes in lung lavage,"[3]; challengeddex vs challenged, p<0.05",significantly lower
same,total cell counts in lung lavage,"[3]; controldex vs control and sensitized, dexamethasone 6.5 μg/kg i.p. daily for three days",no significant difference
same,macrophage values in lung lavage,"[3]; controldex vs control, p=0.03",higher compared with control
same,eosinophils in cartilaginous airways,[4],remained similar to challenged
